pEC50, pKi: −log10 of the molar value. Read-outs that look alike come from different tables or passages of the source.
How the values were obtained:
[1] = molecular target: T1, DAT (h) (Homo sapiens, UniProt Q01959); test: Competition assay to measure binding affinity at dopamine transporter (DAT); conditions: test ligand 10 μM; [3H]BTCP 4 nM
T1 construct: host or cells: CHO cells

[2] = molecular target: T2, 5-HT1A receptor (Homo sapiens, UniProt P08908); test: 5-HT1A receptor radioligand competition assay (SPA); assay type: binding; conditions: for 5-HT1A receptor binding, binding curve in words: FIGS. 35C-35L
T2 construct: purchased Perkin Elmer 6110501400UA
T2 sequence (P08908 1-422): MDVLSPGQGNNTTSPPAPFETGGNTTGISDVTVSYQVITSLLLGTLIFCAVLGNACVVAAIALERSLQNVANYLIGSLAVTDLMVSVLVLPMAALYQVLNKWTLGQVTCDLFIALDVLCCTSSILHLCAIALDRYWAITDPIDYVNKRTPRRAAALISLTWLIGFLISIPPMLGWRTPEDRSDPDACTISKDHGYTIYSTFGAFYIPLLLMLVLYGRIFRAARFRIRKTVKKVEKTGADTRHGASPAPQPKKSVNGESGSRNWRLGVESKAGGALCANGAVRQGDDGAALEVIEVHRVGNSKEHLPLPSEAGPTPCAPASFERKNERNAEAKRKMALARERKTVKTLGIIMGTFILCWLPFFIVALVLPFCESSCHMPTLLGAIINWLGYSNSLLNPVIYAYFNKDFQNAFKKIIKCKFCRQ

[3] = molecular target: 5-HT2A receptor (Homo sapiens, UniProt P28223); test: 5-HT2A receptor radioligand competition assay (SPA)
[4] = molecular target: T3, MT1 (ML1A) (h) (Homo sapiens, UniProt P48039); test: Competition assay to measure binding affinity at MT1 receptor; conditions: test ligand 10 μM; [125I]2-iodomelatonin 0.01 nM
T3 construct: host or cells: CHO cells

[5] = molecular target: T4, 5-HT2C (h) (Homo sapiens, UniProt P28335); test: Competition assay to measure binding affinity at 5-HT2C receptor; conditions: test ligand 10 μM; [125I](±)DOI 0.1 nM
T4 construct: host or cells: HEK-293 cells
T4 sequence (P28335 33-458): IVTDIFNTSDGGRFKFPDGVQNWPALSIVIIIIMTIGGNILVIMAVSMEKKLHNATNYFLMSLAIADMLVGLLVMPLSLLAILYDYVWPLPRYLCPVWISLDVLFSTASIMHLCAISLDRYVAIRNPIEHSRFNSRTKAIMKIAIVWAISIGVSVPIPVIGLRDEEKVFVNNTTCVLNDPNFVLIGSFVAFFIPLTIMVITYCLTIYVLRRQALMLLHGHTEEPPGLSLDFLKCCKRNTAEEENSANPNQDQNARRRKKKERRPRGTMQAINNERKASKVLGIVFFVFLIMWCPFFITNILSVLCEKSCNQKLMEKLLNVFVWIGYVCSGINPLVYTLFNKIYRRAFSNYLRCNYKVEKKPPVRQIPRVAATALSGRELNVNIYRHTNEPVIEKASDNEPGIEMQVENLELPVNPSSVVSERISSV

[6] = molecular target: T5, human serotonin transporter (SERT) (Homo sapiens, UniProt P31645); test: biochemical; assay type: binding
T5 construct: purchased PerkinElmer RBHSTM400UA

[7] = molecular target: T6, 5-HT7 (h) (Homo sapiens, UniProt P34969); test: Competition assay to measure binding affinity at 5-HT7 receptor; conditions: test ligand 10 μM; [3H]LSD 4 nM
T6 construct: host or cells: HEK-293 cells

[8] = molecular target: T7, D2 (h) (Homo sapiens, UniProt P14416); test: Competition assay to measure binding affinity at D2L receptor; conditions: test ligand 10 μM; [3H]methylspiperone 0.3 nM
T7 construct: host or cells: HEK-293 cells

[9] = tested on: C57BL/6-Elite male and female mice; test: Ear-Scratch Response (ESR) assay; assay type: in vivo, mouse; conditions: i.p. 6 mg/kg, 15-to-30-minute window following drug administration
[10] = molecular target: T8, 5-HT2B (h) (Homo sapiens, UniProt P41595); test: Competition assay to measure binding affinity at 5-HT2B receptor; conditions: test ligand 10 μM; [3H]mesulergine 2 nM
T8 construct: host or cells: CHO cells

[11] = molecular target: T9, NET (h) (Homo sapiens, UniProt P23975); test: Competition assay to measure binding affinity at norepinephrine transporter (NET); conditions: test ligand 10 μM; [3H]nisoxetine 1 nM
T9 construct: host or cells: CHO cells

[12] = molecular target: T10, D3 (h) (Homo sapiens, UniProt P35462); test: Competition assay to measure binding affinity at D3 receptor; conditions: test ligand 10 μM; [3H]methylspiperone […]
T10 construct: host or cells: CHO cells

[13] = molecular target: T11, alpha2A (h) (Homo sapiens, UniProt P08913); test: Competition assay to measure binding affinity at alpha2A receptor; conditions: test ligand 10 μM, [3H]RX 821002 1 nM; for inhibition at 10 µM: read-out: α-2A, percent of control-specific binding
T11 construct: host or cells: CHO cells
T11 sequence (P08913 1-465): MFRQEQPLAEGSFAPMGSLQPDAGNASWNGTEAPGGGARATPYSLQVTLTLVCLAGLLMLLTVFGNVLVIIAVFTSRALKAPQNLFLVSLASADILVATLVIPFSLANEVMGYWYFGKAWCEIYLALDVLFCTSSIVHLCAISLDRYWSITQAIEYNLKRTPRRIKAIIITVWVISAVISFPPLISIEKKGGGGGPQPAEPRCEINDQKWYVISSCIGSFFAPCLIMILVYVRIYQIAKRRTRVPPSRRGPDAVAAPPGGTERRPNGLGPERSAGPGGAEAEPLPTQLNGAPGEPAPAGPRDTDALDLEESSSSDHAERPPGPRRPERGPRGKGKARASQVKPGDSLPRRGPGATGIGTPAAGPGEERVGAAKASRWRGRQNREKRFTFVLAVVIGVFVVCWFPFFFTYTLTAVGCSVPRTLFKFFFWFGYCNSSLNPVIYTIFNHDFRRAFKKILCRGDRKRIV

[14] = molecular target: T12, 5-HT1D (r) (Rattus norvegicus, UniProt P28565); test: Competition assay to measure binding affinity at 5-HT1D receptor; conditions: test ligand 10 μM; [3H]serotonin 1 nM
T12 construct: host or cells: CHO cells

[15] = molecular target: T13, 5-HT1B (h) (Homo sapiens, UniProt P28222); test: Competition assay to measure binding affinity at 5-HT1B receptor; conditions: test ligand 10 μM; [3H]GR125743 1 nM
T13 construct: host or cells: Chem-1 (RBL) cells

[16] = tested on: C57BL/6-Elite male and female mice; test: Head Twitch Response (HTR) assay; assay type: in vivo, mouse; conditions: i.p. 6 mg/kg, 15-to-30-minute window following drug administration
[17] = molecular target: T2, 5-HT1A receptor; test: Functional 5-HT1A receptor cAMP assay in CHO-K1/5-HT1A/Gα15 cells; assay type: cell-based
[18] = competition with 0.5 nM 8-hydroxy-DPAT [3H], test compound 3 nM to 1 mM, read-out: 5-HT1A, Ki
[19] = read-out: 5-HT2A, Ki, competition with 1 nM [3H]ketanserin, test compound 3 nM to 1 mM

T5 sequence (P31645 whole entry): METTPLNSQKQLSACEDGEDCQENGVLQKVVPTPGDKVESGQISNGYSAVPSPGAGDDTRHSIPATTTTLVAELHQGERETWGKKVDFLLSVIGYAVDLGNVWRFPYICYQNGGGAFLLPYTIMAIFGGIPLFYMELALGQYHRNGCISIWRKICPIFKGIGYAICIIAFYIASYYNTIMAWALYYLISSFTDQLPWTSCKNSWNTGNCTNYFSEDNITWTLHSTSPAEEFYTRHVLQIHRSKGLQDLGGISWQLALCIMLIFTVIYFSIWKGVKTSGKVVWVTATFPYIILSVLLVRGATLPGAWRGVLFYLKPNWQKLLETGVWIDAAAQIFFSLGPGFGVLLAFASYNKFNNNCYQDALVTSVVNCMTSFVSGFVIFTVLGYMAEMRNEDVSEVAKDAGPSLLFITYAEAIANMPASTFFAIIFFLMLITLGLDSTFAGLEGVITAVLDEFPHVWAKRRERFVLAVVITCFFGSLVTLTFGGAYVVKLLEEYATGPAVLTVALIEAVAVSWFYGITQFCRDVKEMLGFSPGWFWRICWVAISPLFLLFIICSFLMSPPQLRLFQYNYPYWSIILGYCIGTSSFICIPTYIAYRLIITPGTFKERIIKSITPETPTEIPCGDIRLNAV
T12 sequence (P28565 whole entry): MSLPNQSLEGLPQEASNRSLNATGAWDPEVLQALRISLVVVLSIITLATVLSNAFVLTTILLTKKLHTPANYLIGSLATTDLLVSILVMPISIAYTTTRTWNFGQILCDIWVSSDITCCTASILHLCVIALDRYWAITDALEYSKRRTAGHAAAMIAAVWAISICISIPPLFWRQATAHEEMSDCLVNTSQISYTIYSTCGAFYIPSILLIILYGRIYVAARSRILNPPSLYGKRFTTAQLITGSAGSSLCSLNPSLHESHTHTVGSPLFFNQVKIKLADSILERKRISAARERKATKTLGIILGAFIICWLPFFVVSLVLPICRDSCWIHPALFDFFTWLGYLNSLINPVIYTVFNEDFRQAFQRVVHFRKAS
T9 sequence (P23975 whole entry): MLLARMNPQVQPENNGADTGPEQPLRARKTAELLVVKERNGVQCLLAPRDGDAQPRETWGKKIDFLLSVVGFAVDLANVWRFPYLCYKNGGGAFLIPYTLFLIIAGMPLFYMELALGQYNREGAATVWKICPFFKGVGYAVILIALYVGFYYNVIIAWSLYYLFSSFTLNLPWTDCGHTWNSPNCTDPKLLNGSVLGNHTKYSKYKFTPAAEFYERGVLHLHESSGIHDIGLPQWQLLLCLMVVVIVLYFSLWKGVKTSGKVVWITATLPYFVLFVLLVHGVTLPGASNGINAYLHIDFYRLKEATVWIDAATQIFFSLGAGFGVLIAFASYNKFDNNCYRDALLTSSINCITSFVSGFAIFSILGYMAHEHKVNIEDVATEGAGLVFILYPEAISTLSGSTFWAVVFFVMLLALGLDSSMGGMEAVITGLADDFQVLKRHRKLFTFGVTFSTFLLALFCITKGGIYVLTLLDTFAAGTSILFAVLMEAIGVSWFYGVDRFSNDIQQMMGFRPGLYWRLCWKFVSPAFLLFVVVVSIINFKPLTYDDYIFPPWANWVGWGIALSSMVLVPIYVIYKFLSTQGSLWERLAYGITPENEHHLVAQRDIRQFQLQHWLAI
T10 sequence (P35462 whole entry): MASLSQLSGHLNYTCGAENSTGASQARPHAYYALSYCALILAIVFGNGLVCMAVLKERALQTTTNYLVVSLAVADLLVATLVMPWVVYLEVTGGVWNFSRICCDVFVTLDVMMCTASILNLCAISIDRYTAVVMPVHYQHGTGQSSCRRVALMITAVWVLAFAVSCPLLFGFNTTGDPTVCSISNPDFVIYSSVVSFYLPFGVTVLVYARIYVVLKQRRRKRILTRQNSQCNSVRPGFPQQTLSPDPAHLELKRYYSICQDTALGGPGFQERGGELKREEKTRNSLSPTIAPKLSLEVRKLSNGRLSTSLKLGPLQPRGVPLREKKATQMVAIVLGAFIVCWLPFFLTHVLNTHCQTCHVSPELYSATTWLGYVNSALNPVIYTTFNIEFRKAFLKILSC
T1 sequence (Q01959 whole entry): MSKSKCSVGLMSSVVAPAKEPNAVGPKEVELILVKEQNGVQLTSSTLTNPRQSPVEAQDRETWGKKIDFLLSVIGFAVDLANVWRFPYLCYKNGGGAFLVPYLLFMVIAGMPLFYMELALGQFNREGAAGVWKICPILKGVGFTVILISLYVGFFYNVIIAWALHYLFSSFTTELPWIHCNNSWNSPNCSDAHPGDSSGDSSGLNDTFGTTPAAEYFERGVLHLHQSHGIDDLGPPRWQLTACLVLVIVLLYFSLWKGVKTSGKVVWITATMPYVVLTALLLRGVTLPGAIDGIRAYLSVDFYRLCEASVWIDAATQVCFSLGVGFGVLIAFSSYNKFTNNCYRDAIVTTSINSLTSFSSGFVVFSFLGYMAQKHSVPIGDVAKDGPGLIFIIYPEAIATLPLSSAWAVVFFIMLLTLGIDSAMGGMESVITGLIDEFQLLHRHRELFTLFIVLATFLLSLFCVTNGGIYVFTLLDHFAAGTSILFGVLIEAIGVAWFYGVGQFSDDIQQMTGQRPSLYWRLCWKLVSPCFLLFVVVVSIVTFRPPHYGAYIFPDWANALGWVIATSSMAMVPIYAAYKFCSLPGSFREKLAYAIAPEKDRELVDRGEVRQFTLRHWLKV
T6 sequence (P34969 whole entry): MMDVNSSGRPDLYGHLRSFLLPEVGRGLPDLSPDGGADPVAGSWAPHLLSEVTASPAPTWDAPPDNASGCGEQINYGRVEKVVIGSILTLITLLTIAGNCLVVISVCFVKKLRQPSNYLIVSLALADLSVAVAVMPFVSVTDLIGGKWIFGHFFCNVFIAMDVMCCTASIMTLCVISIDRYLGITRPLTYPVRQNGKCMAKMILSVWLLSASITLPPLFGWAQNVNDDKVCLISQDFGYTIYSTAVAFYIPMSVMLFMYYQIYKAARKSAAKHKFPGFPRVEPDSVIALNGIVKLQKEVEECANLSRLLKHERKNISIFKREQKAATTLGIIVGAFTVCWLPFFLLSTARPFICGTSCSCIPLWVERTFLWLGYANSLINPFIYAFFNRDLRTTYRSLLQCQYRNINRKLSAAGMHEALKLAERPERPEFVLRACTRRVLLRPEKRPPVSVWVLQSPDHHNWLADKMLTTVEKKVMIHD
T13 sequence (P28222 whole entry): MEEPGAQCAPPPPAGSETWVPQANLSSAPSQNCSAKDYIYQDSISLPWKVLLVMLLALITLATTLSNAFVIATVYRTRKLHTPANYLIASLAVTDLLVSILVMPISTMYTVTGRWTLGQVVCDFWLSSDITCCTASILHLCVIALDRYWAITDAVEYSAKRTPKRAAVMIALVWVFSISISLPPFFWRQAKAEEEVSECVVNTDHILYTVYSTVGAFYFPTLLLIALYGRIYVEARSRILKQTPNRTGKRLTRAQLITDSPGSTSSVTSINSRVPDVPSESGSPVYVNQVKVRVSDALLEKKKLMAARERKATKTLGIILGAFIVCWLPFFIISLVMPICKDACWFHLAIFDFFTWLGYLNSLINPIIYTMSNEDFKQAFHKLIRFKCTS
T7 sequence (P14416 whole entry): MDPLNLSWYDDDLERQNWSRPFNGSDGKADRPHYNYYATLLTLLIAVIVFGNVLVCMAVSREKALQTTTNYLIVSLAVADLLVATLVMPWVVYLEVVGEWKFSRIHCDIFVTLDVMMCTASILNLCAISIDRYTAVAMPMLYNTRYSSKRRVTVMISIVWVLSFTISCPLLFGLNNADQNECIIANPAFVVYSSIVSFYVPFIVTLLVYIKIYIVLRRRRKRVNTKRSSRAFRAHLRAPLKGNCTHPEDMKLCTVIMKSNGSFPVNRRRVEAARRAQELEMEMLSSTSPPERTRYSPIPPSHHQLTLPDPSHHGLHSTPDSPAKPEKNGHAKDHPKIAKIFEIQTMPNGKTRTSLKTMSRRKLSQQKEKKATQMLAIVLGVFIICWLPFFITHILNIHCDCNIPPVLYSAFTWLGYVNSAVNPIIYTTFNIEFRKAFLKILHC
5-HT2A receptor, sequence (P28223 whole entry): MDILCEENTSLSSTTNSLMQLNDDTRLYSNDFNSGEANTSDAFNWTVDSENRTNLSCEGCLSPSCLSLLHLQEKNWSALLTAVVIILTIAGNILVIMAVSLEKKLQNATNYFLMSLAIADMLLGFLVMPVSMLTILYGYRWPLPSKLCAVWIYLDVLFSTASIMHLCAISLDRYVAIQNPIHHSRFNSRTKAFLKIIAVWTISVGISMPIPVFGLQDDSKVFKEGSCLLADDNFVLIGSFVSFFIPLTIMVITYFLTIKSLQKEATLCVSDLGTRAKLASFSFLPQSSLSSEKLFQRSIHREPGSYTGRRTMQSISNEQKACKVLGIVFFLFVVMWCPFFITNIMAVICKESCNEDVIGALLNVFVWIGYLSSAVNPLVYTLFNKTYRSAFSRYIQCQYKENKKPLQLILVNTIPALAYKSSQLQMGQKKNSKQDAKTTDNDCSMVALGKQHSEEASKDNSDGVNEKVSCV
T3 sequence (P48039 whole entry): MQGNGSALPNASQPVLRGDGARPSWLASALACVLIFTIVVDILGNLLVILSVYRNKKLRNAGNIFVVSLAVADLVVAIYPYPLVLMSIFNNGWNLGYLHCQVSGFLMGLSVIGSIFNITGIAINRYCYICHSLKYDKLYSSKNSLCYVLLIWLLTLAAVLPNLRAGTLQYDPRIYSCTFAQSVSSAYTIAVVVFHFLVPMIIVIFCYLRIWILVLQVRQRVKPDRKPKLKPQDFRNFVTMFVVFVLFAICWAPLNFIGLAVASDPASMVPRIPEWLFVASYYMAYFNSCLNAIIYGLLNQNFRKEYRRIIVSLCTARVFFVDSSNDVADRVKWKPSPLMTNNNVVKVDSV

Row | Structure (SMILES) | DAT, percent of control-specific binding [1] | pKi [3] | MT1, percent of control-specific binding [4] | HT2C, percent of control-specific binding [5] | pKi [6] | HT7, percent of control-specific binding [7] | D2, percent of control-specific binding [8] | incidences of ESR relative to vehicle-treated control mice [9] | HT2B, percent of control-specific binding [10] | NET, percent of control-specific binding [11] | D3, percent of control-specific binding [12] | inhibition at 10 µM [13] | HT1D, percent of control-specific binding [14] | HT1B, percent of control-specific binding [15] | incidences of HTR relative to vehicle-treated control mice [16] | pKi [2, 18] | SERT binding, binding curve in words [6] | further results
1 | CC(Cc1ccc2c(c1)OCO2)NC1CCC1 (stereo not shown) [A(I)] | 98% | 3.29 | 2% | 28% | 5.96 | 5% | 15% | Elevated incidences of ESR | 37% | 62% | 24% | 35% | 0% | 0% | Elevated incidences of HTR |  |  | pKi [2]: 4.68
2 | c1cc2c(cc1CCN1CCOCC1)OCO2 [A(VII)] | 18% | 5.22 | 0% | 4% | 4.52 | 14% | 3% | Elevated incidences of ESR | 12% | 0% | 4% | 5% | 0% | 0% | Elevated incidences of HTR | 4.62 |  | 
3 | FC1(F)Oc2ccc(CCN3CCCC3)cc2O1 [A(XXVIII)] | 0% | 4.81 | 0% | 53% | 4.62 | 15% | 6% |  | 15% | 0% | 16% | 26% | 1% | 0% |  | 5.70 |  | pEC50 [17]: 3.43
4 | OCCNCCc1cc2c(cc1Br)OCO2 [A(XXX)] | 0% | 4.93 | 0% | 57% | 4.07 | 61% | 4% |  | 54% | 6% | 30% | 6% | 39% | 0% |  | 6.53 |  | pEC50 [17]: 4.93
5 | CNC(C)Cc1ccc2c(c1)OCO2 (stereo not shown) [MDMA, reference compound] | 28% |  | 1% | 96% |  | 58% | −10% |  | 85% | 3% | 18% |  | 18% | −21% |  | 4.96 | bind SERT to varying degrees | pKi [3, 19]: 4.40; pKi ([6]; read-out: SERT, Ki): 5.24; 5-HT1A receptor engagement (change in cAMP levels), in words ([17]; +5-HT1A cells, 4 μM forskolin, FIGS. 37B-37H): mild; pEC50 ([17]; reduction of cAMP in +5-HT1A cells stimulated with 4 μM forskolin, 20 min, read-out: 5-HT1A, EC50): < 3.00; α-2A, percent of control-specific binding [13]: 27%
6 | CCOc1c(OC)cc(CCN)cc1OC [escaline] | 0% |  | 0% | 95% |  | 16% | 5% | Elevated incidences of ESR | 81% | 6% | 0% |  | 42% | 0% | Elevated incidences of HTR | 4.91 | bind SERT to varying degrees | 5-HT1A receptor binding, binding curve in words [2]: binding to 5-HT1A receptor; pKi [3, 19]: 4.21; pKi ([6]; read-out: SERT, Ki): 3.95; α-2A, percent of control-specific binding [13]: 45%
7 | CCCOc1c(OC)cc(CCN)cc1OC [proscaline, reference compound] | −2% |  | 3% | 97% | 3.60 |  | −11% | Elevated incidences of ESR | 85% | −9% | 4% | 40% | 25% | −13% | Elevated incidences of HTR |  | bind SERT to varying degrees | 5-HT1A receptor binding, binding curve in words [2]: binding to 5-HT1A receptor

From patent publication US12428408B2, “Fused heterocyclic mescaline derivatives” (Enveric Biosciences Canada Inc., priority 2022, dated 2025)
